# Assay results: US20080188562A1, “TREATING […] USING PRODRUGS OF […] PREGABALIN” (priority 2006, published 2008)
# Experiments:
# [1] = Randomized, crossover, fed/fasted single-dose pharmacokinetics study of oral sustained release tablets of compound (3); type: in vivo, human; details: tablets 2×600 mg oral
# Procedure: A randomized, crossover, fed/fasted single-dose study of the safety, tolerability, and pharmacokinetics of oral administration of 1-{[(α-isobutanoyloxyethoxy)carbonyl]aminomethyl}-1-cyclohexane acetic acid (3) in healthy adult subjects was conducted. The oral sustained release dosage form of Example 6 was used in this study. The study was designed to evaluate the performance of this formulation in humans in comparison with the commercial gabapentin capsule formulation (Neurontin®, Pfizer). Twelve healthy adult volunteers (7 males and 5 females) participated in the study. Mean body weight was 75.6 kg. All subjects received two different treatments in a random order with a one-week washout between treatments.
# Blood and plasma samples were collected from all subjects prior to dosing, and at 0.5, 1, 1.5, 2, 3, 4, 6, 8, 12, 18, 24, and 36 hours after dosing. Urine samples were collected from all subjects prior to dosing, and complete urine output was obtained at the 0-4 h, 4-8 h, 8-12 h, 12-18 h, 18-24 h, and 24-36 h intervals after dosing. Blood samples were quenched immediately with methanol and stored frozen at <70° C. Sample aliquots were prepared for analysis of gabapentin and compound (3) using sensitive and specific LC/MS/MS methods.
# [2] = test system: acoustic trauma-induced tinnitus; details: animals; Bauer and Brozoski 2001; cited from earlier work
# tinnitus = details: doses up to 2,400 mg/day; Bauer and Brozoski 2006; cited from earlier work
# [3] = cited from earlier work
structure (smiles),measurement,setting,value
"CC(OC(=O)NCC1(CC(=O)O)CCCCC1)OC(=O)C(C)C (stereo not drawn) [compound (3), 1-{[(α-Isobutanoyloxyethoxy)carbonyl]aminomethyl}-1-Cyclohexane Acetic Acid]",AUC of compound (3) in blood as percent of corresponding AUC of gabapentin in blood,[1]; fasted,0.3%
same,Maximum concentration of intact compound (3) as percent of corresponding peak gabapentin concentration,[1]; fasted,approximately 1.0%
same,Maximum concentration of intact compound (3) in blood,[1]; fasted,0.040 µg/mL
same,AUC of compound (3) in blood as percent of corresponding AUC of gabapentin in blood,[1]; fed,less than 0.1%
same,Maximum concentration of intact compound (3) as percent of corresponding peak gabapentin concentration,[1]; fed,approximately 0.3%
same,Maximum concentration of intact compound (3) in blood,[1]; fed,0.018 µg/mL
NCC1(CC(=O)O)CCCCC1 [gabapentin],Attenuation of acoustic trauma-induced tinnitus,[2],effective in reversibly attenuating acoustic trauma-induced tinnitus in animals
same,Efficacy in treating tinnitus,tinnitus,effective in treating tinnitus
same,Typical Tmax of immediate release gabapentin,[3],2 to 4 h
